In ChEMBL document CHEMBL1148493, “A combination of docking/dynamics simulations and pharmacophoric modeling to discover new dual c-Src/Abl kinase inhibitors” (J Med Chem, 2006):

Tests used:
[1] = target: Proto-oncogene tyrosine-protein kinase Src (Homo sapiens, UniProt P12931); assay: Binding affinity to human recombinant Src
[2] = target: Tyrosine-protein kinase ABL1 (Homo sapiens) (UniProt P00519)
Sequence of Tyrosine-protein kinase ABL1 (Homo sapiens) (P00519 whole entry): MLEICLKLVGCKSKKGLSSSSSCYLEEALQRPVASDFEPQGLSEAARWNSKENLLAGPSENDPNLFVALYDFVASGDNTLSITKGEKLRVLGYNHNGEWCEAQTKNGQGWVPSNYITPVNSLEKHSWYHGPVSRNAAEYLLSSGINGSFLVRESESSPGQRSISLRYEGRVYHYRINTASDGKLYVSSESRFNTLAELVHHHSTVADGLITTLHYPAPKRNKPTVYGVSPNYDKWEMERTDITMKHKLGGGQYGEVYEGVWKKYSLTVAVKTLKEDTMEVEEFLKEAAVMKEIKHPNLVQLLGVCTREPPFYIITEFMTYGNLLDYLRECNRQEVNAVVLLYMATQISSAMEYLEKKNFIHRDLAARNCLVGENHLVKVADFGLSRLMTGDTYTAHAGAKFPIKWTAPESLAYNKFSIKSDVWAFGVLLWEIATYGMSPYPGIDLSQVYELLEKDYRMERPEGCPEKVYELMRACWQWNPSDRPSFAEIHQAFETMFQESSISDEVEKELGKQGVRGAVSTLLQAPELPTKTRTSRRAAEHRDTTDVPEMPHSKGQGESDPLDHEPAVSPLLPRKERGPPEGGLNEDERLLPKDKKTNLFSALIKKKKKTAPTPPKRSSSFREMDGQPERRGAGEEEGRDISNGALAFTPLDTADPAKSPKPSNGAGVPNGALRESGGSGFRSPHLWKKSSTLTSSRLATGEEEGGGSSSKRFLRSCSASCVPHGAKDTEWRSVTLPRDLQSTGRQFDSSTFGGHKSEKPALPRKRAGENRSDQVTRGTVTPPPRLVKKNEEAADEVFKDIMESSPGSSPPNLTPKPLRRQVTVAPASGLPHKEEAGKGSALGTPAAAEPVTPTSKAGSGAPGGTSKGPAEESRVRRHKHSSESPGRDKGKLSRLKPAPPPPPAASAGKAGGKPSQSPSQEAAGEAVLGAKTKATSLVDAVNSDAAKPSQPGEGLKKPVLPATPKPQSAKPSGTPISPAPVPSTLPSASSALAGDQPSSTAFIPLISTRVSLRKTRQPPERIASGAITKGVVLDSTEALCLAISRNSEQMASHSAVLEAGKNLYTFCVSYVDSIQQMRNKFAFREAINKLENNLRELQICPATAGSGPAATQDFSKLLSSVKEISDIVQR
Description: Binding affinity to human recombinant Abl

Sequence of Proto-oncogene tyrosine-protein kinase Src (P12931 2-536 limits assumed): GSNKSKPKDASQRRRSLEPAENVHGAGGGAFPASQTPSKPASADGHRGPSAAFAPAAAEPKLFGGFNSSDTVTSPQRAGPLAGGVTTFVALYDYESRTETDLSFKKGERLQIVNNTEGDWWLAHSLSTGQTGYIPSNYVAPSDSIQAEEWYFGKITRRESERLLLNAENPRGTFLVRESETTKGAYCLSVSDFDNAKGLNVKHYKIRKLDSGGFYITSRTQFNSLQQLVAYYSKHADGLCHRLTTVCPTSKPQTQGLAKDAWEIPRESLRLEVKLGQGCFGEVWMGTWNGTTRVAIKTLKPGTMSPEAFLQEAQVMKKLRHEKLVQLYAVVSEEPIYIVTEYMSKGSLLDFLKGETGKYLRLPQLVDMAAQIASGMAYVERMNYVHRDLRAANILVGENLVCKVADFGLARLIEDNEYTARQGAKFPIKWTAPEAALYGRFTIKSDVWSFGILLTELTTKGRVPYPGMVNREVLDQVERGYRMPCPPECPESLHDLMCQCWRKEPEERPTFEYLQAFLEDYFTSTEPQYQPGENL

Row | ID50 [1] [µM] | ID50 [2] [µM] | Ki [1] [µM] | SMILES
1 | > 2000 | – | – | O=C(Nc1ccccc1)Nc1nnc(Cc2ccccc2)s1
2 | – | > 2000 | – | CCN(CC)c1ccc(/C=C2/C(=O)NN(c3ccc(I)cc3)C2=O)c(O)c1
3 | – | > 2000 | – | O=C1NN(c2ccccc2)C(=O)/C1=C\c1ccccc1OCc1ccccc1
4 | – | > 2000 | – | O=C(Nc1nnc(CCc2ccccc2)s1)c1ccc(Cl)cc1Cl
5 | – | > 2000 | – | COc1ccc(C(=O)Nc2nnc(Cc3c[nH]c4ccccc34)s2)cc1
6 | > 2000 | > 2000 | – | Cc1ccc(-c2cnc(NC(=O)c3ccc(Br)cc3)s2)cc1
7 | > 2000 | – | – | O=C1NN(c2ccc(I)cc2)C(=O)/C1=C\c1ccc(N2CCOCC2)cc1
8 | – | > 2000 | 2.9 | O=C(Nc1nnc(CCc2ccccc2)s1)c1ccccc1
